Reference: patent US11591632B2, “Genetically-mutated bacterial strain for detecting estrogenic compound and method for detecting estrogenic compound using the same” (INDUSTRY-UNIVERSITY COOPERATION FOUNDATION HANYANG …, priority 2016, dated 2023)

What was measured:
hERα LBD [1] = target: T1, hERα LBD (Homo sapiens, UniProt P03372); assay type: cell-based; details: E. coli FW102 OL2-62 pACλCI::RIP140-FLAG pBRαNTD::hERα LBD-FLAG, 20 μM IPTG, 30 minutes incubation
T1 construct: hERα LBD (N304-T553: amino acid 304, asparagine, through amino acid 553, threonine); expressed in transfected cells; host or cells: E. coli FW102 OL2-62
Protocol: (§1) Afterward, estrogens and EDCs were added at corresponding concentrations, and the cells were further incubated for 30 minutes. Subsequently, 800 μL of the cells were harvested, and resuspended in 800 μL of a buffer solution (60 mM of Na2HPO4, 40 mM of NaH2PO4, 10 mM of KCl, 1 mM of MgSO47H2O, 400 μM of dithiothreitol), followed by measuring OD600 (cell content). Afterward, the cells were lysed by ultrasonication and treated with 160 μL of 4 mg/mL ONPG, and thus a time to change a color of the specimen into yellow was recorded. When the color of the specimen changed to yellow, the reaction was stopped with 400 μL of 1M Na2CO3.

hERα LBD [2] = details: LE7197, lacZ expression in Miller units, with IPTG, 30 minutes incubation
Protocol: as §1, with “The E. coli FW102 OL2-62 pACλCI::TIF2 BD-FLAG pBRαNTD::hERα LBD-FLAG strain was inoculated, and cultured up to OD600˜ 0.4 (20 μM IPTG added; the inducible substance for inducing expression of λCI-TIF2 BD-FLAG and αNTD-hERα LBD-FLAG). Afterward, estrogens” for “Afterward, estrogens”
Afterward, through β-galactosidase analysis, the expression of a reporter gene, the lacZ gene, was expressed in terms of Miller units.

T1 sequence (P03372 304-553): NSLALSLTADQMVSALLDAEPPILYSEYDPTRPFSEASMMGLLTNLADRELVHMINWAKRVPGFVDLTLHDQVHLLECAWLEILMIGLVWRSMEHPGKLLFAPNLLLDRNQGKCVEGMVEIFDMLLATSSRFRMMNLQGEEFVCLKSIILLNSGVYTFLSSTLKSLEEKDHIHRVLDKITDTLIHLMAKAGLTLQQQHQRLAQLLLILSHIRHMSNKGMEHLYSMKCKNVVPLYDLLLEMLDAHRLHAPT
T1 sequence (P48552 whole entry partner, the tested form may be a part): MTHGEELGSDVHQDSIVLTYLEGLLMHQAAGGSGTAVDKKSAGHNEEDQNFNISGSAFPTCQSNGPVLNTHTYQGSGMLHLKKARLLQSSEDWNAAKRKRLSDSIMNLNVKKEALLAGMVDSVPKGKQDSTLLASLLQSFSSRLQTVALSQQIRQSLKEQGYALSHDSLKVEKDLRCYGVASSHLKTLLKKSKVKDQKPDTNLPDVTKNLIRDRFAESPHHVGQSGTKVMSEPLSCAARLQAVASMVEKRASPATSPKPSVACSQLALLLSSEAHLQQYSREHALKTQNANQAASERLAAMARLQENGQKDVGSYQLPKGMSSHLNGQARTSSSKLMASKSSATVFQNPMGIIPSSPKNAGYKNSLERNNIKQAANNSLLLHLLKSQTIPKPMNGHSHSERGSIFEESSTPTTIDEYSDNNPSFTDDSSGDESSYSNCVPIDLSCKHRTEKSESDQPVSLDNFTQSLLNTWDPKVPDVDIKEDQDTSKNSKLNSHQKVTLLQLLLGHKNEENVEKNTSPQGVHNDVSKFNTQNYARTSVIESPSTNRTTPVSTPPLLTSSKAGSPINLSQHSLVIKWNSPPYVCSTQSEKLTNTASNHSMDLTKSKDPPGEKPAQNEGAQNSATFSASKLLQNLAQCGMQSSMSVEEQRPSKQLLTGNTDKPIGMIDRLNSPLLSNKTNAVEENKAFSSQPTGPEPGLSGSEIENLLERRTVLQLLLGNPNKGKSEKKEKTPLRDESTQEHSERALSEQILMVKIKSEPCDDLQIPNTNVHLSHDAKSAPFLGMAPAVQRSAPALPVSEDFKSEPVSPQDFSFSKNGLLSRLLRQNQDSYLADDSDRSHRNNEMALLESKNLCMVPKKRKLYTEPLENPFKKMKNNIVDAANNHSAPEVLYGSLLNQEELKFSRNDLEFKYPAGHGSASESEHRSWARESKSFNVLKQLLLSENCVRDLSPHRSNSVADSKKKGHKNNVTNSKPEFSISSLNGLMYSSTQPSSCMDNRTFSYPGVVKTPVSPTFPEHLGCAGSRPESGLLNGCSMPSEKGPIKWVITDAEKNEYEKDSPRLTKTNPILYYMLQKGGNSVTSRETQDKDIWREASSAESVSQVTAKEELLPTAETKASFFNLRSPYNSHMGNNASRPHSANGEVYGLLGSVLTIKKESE
T1 sequence (P0A7Z4 1-248 partner limits assumed): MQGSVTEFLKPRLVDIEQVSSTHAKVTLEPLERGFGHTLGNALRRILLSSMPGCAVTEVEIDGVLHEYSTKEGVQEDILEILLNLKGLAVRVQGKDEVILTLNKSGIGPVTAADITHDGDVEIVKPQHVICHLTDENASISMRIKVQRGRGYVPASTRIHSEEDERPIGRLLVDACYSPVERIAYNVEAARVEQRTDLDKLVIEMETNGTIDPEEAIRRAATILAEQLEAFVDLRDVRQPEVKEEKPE
T1 sequence (P03034 whole entry partner, the tested form may be a part): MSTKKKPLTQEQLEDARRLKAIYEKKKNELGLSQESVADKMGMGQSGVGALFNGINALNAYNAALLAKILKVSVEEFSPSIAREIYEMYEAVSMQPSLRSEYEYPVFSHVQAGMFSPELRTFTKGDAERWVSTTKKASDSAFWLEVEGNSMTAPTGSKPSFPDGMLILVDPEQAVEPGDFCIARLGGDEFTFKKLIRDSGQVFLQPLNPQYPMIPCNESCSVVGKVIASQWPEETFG

Row | Molecule | Miller units as a function of compound concentration in the specimen (hERα LBD [1]) | concentration that can be sensed/detected by sensor strain (hERα LBD [2])
1 | nonylphenol | the higher the Miller units | approximately 100 nM
2 | Oc1ccc(Cc2ccc(O)cc2)cc1 [bisphenol F] |  | several hundred
3 | O=S(=O)(c1ccc(O)cc1)c1ccc(O)cc1 [bisphenol S] |  | several hundred
4 | CC(C)(c1ccc(O)cc1)c1ccc(O)cc1 [bisphenol A] | the higher the Miller units | 
